Where a name gives a salt, the structure may show the parent alone.
Columns and labels:
Assay in all cases: MIC, agar dilution
Format in all cases: cell-based
Micrococcus luteus, 2495 = conditions: Micrococcus luteus, 2495, 18 h, K-10 agar, 10^4 CFU, 37°C, read-out: M.I.C.
How it was run: (§1)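 Broth cultures grown 18-20 h at 37°C, diluted 1:100 in K-10 broth, applied by multipoint inoculator at 10^4 CFU onto K-10 agar holding twofold compound dilutions, 100 to 0.05 µg/ml final. MIC taken as lowest concentration inhibiting growth.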

[1] = system: Enterobacter cloacae, 8236; conditions: Enterobacter cloacae, 8236, 18 h, K-10 agar, 10^4 CFU, 37°C
How it was run: as §1

[2] = system: Streptococcus agalactiae, 9287; conditions: Streptococcus agalactiae, 9287, 18 h, K-10 agar, 10^4 CFU, 37°C, read-out: M.I.C.
How it was run: as §1

[3] = system: Pseudomonas aeruginosa, 8329; conditions: K-10 agar, 10^4 CFU, 37°C, 18 hours, read-out: M.I.C.
How it was run: (§2)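 Agar dilution in K-10 agar; final drug 100–0.05 µg/ml, twofold steps. Inoculum 10^4 CFU/spot via multipoint inoculator from 18–20 h broth culture diluted 1:100. Incubation 37°C, 18 h; MIC = lowest concentration with no growth.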

Salmonella typhosa, 1195 = conditions: Salmonella enterica, TYPHOSA, 18 h, K-10 agar, 10^4 CFU, 37°C
How it was run: as §2

[4] = system: Staphylococcus aureus, 2400; conditions: Staphylococcus aureus, 2400; K-10 agar, 10^4 CFU, 37°C, 18 hours; read-out: M.I.C.
How it was run: as §2

[5] = system: Acinetobacter calcoaceticus, 8333; conditions: Acinetobacter calcoaceticus, 8333, 18 h, K-10 agar, 10^4 CFU, 37°C, read-out: M.I.C.
How it was run: as §2

[6] = system: Staphylococcus aureus, 10165; conditions: Staphylococcus aureus, 10165; K-10 agar, 10^4 CFU, 37°C, 18 hours; read-out: M.I.C.
How it was run: as §2

[7] = system: Serratia marcescens, 9783; conditions: Serratia marcescens, 9783, 18 h, K-10 agar, 10^4 CFU, 37°C, read-out: M.I.C.
How it was run: as §2

Proteus mirabilis, 3855 = conditions: Proteus mirabilis, 3855, 18 h, K-10 agar, 10^4 CFU, 37°C, read-out: M.I.C.
How it was run: as §2

[8] = system: Klebsiella aerogenes, 10440; conditions: K-10 agar, 10^4 CFU, 37°C, 18 hours, read-out: M.I.C.
How it was run: as §2

[9] = system: Streptococcus faecalis, 9011; conditions: Enterococcus faecalis; Streptococcus faecalis, 9011; K-10 agar, 10^4 CFU, 37°C, 18 hours; read-out: M.I.C.
How it was run: as §2

[10] = system: Citrobacter freundii, 9518; conditions: K-10 agar, 10^4 CFU, 37°C, 18 hours, read-out: M.I.C.
How it was run: as §2

Escherichia coli, 10857 = conditions: Escherichia coli, 10857, 18 h, K-10 agar, 10^4 CFU, 37°C
How it was run: as §2

Proteus vulgaris, 9416 = conditions: K-10 agar, 10^4 CFU, 37°C, 18 hours, read-out: M.I.C.
How it was run: as §2

Escherichia coli, 10909 = conditions: K-10 agar, 10^4 CFU, 37°C, 18 hours
How it was run: as §2

Escherichia coli, 10896 = conditions: K-10 agar, 10^4 CFU, 37°C, 18 hours
How it was run: as §2

Shigella sonnei, 8449 = conditions: Shigella sonnei, 8449, 18 h, K-10 agar, 10^4 CFU, 37°C
How it was run: as §2

[11] = system: Pseudomonas aeruginosa, 9545; conditions: Pseudomonas aeruginosa, 9545, 18 h, K-10 agar, 10^4 CFU, 37°C, read-out: M.I.C.
How it was run: as §2

[12] = system: Klebsiella pneumoniae, 9527; conditions: Klebsiella pneumoniae, 9527, 18 h, K-10 agar, 10^4 CFU, 37°C, read-out: M.I.C.
How it was run: as §2

Escherichia coli, 8294 = conditions: Escherichia coli, 8294, 18 h, K-10 agar, 10^4 CFU, 37°C
How it was run: as §2

[13] = system: Staphylococcus aureus, 2399; conditions: Staphylococcus aureus, 2399, 18 h, Staphylococcus aureus, 2399; K-10 agar, 10^4 CFU, 37°C, 18 hours; read-out: M.I.C.
How it was run: as §2

[14] = system: Staphylococcus aureus, 1276; conditions: Staphylococcus aureus, 1276; K-10 agar, 10^4 CFU, 37°C, 18 hours; read-out: M.I.C.
How it was run: as §2

[15] = system: Enterobacter aerogenes, 10078; conditions: Klebsiella aerogenes, 10078, 18 h, Enterobacter aerogenes, 10078; K-10 agar, 10^4 CFU, 37°C, 18 hours; read-out: M.I.C.
How it was run: as §2

Proteus rettgeri, 8479 = conditions: Providencia rettgeri, K-10 agar, 10^4 CFU, 37°C, 18 hours, read-out: M.I.C.
How it was run: as §2

SMILES | MIC (Micrococcus luteus, 2495) [µg/mL] | MIC [1] [µg/mL] | MIC [2] [µg/mL] | MIC [3] [µg/mL] | MIC (Salmonella typhosa, 1195) [µg/mL] | MIC [4] [µg/mL] | MIC [5] [µg/mL] | MIC [6] [µg/mL] | MIC [7] [µg/mL] | MIC (Proteus mirabilis, 3855) [µg/mL] | MIC [8] [µg/mL] | MIC [9] [µg/mL] | MIC [10] [µg/mL] | MIC (Escherichia coli, 10857) [µg/mL] | MIC (Proteus vulgaris, 9416) [µg/mL] | MIC (Escherichia coli, 10909) [µg/mL] | MIC (Escherichia coli, 10896) [µg/mL] | MIC (Shigella sonnei, 8449) [µg/mL] | MIC [11] [µg/mL] | MIC [12] [µg/mL] | other results
C[C@H]1[C@H](NC(=O)/C(=N\OC(C)(C)C(=O)OCc2ccc([N+](=O)[O-])cc2)c2csc(N)n2)C(=O)N1S(=O)(=O)O [Example 15, [3S-[3α(Z),4β]]-3-[[(2-Amino-4-thiazolyl)[[1,1-dimethyl-2-[(4-nitrophenyl)methoxy]-2-oxoethoxy]-imino]acetyl]amino]-4-methyl-2-oxo-1-azetidinesulfonic acid, potassium salt] | 1.6 | 25 | 0.8 | > 100 | 6.3 | 12.5 | > 100 | 50 | 50 | 6.3 | > 100 | > 100 | 25 | 0.4 | 1.6 | 6.3 | 6.3 | 25 | 12.5 | 12.5 | MIC (Escherichia coli, 8294): 50 µg/mL; MIC [13]: 6.3 µg/mL; MIC [14]: 6.3 µg/mL; MIC [15]: 100 µg/mL; MIC (Proteus rettgeri, 8479): 1.6 µg/mL
C[C@H]1[C@H](NC(=O)C(=O)c2csc(N)n2)C(=O)N1S(=O)(=O)O [Example 27, (3S-trans)-3-[[(2-Amino-4-thiazolyl)oxoacetyl]-amino]-4-methyl-2-oxo-1-azetidinesulfonic acid, potassium salt] | 100 | 3.1 | 12.5 | > 100 | 3.1 | > 100 | > 100 | > 100 | 3.1 | 3.1 | 6.3 | > 100 | 3.1 | 3.1 | 6.3 | 1.6 | 3.1 | 3.1 | 50 | 6.3 | MIC (Escherichia coli, 8294): 6.3 µg/mL; MIC [13]: > 100 µg/mL; MIC [14]: > 100 µg/mL; MIC [15]: 6.3 µg/mL; MIC (Proteus rettgeri, 8479): 0.4 µg/mL
COC1(NC(=O)Cc2ccccc2)C(=O)N(S(=O)(=O)O)C1C (stereo not drawn) [Example 29, (3S-trans)-3-Methoxy-4-methyl-2-oxo-3-[(phenylacetyl)-amino]-1-azetidinesulfonic acid, potassium salt] | > 100 | > 100 | > 100 | > 100 | > 100 | > 100 | > 100 | > 100 | > 100 | > 100 | > 100 | > 100 | > 100 | > 100 | > 100 | 100 | 100 | > 100 | > 100 | 100 | MIC (Escherichia coli, 8294): > 100 µg/mL; MIC [13]: > 100 µg/mL; MIC [14]: > 100 µg/mL; MIC [15]: > 100 µg/mL; MIC (Proteus rettgeri, 8479): > 100 µg/mL

Source: patent publication EP0187355A1, “Process for preparing beta-lactam antibiotics” (E.R. Squibb & Sons, Inc., priority 1981, dated 1982)
